Columns and labels:
Format in all cases: in vivo, rat
anesthetized rats [1] = assay: Mean arterial blood pressure during and after iv peptide infusion
Procedure: (§1) Rats were not fasted prior to clearance experiments and ranged in weight from 250-340 g at the time of study. Anesthesia was induced with an intraperitoneal injection of pentobarbital sodium (55 mg/kg BW) and maintained at a surgical plane by intermittent intravenous supplementation. Core temperature was maintained at 37° C. by a servo-controlled, heated operating table. Animals breathed spontaneously through a PE240 cannula inserted into the trachea. A jugular vein was catheterized with PE50 cannula tubing for intravenous infusion of isotonic saline containing FITC-labeled inulin (0.4% W/V, Sigma, St Louis Mo.) and two PE10 cannulae, one for supplemental anesthetic and the other for peptide infusions (described below in the experimental protocol section). The ureters were exposed through a midline ventral incision and cannulated with PE10 tubing about one cm from each kidney. Urine was collected over 20 min periods and the volume estimated by weight. A femoral artery was cannulated with PE50 tubing for continuous measurement of arterial blood pressure and intermittent blood samples (50 μl), taken at the mid point of each urine collection.
(§2) Arterial blood pressure was measured with a pressure transducer connected to a cardiovascular analyzer (Model 50110, Stoelting Instruments Wood Dale, Ill.). Left renal blood flow was measured in some rats with a flow probe positioned on the left renal artery and connected to a blood flow monitor (model 1 PRB probe and model T420 monitor, Transonic Systems Inc. Ithaca N.Y.). Arterial pressure, heart rate, and renal blood flow were digitized with an A/D converter (Keithley instruments, Cleveland, Ohio Model KUSB 3100) for display and storage on a Windows-based personal computer using open layers data acquisition software (Dtx_Ez, Data Translation Inc, Marlboro, Mass.). Sodium and potassium concentrations in plasma and urine were measured by flame photometry (Model 943, Instrumentation Laboratory Co., Lexington Mass.). Glomerular filtration rate (GFR) was measured as the renal clearance rate of FITC-labeled inulin
(§3) After post-surgical equilibration (−60 min) and three 20 min control clearance periods, huUgnA or B was infused into the jugular vein at 10 μl/min over a 60 min period, followed by a return to isotonic saline for the remainder of the experiment. The infused doses of huUgnA were 12, 25, 50, 100, or 200 nmol/kg BW in a total of 38 rats; huUgnB doses were 9, 18, 35, 70, and 140 nmol/kg BW in 35 rats. A UgnA mimetic, E. coli STh (ST-core), was infused into a third group of 32 rats at doses of 17, 32, 66, 133, and 266 nmol/kg. Renal excretory responses to these infusions were slow to develop and long lasting, so clearance periods were continued for 2-3 hr after the termination of the peptide infusion. This protracted time course limited protocols to one dose of one peptide in each rat. A control group of 10 rats received isotonic saline at 10 μl/min in place of the peptide infusion, but was otherwise treated in the same way as the experimental groups.
(§4) Group comparisons were made with one way analysis of variance (ANOVA) using peptide doses as column variables. Columns were further divided into pre-infusion, infusion, and post infusion subgroups to facilitate post hoc testing with Bonferroni's method for selected multiple comparisons. Row variables were individual measurements from each clearance period for each rat. Responses were tested for statistical significance by comparing control values during the pre-infusion, infusion and post infusion collection periods with corresponding values obtained from peptide-infused rats. Each experimental group included 5 different doses of huUgnA, huUgnB, or ST-core. Thus, fifteen comparisons were required for each measured variable in each group.

anesthetized rats [2] = assay: Urine flow rate during and after iv peptide infusion
Procedure: as §1, §3, §4

anesthetized rats [3] = assay: Glomerular filtration rate (FITC-inulin clearance) during and after iv peptide infusion
Procedure: All rats received a continuous intravenous infusion (10 μl/min/100 g BW) of isotonic saline containing FITC-labeled inulin for measurement of inulin clearance. Uncongugated FITC label and small inulin polymers were removed from the inulin solution by overnight dialysis against isotonic saline (SpectraPor 6 dialysis membrane, 1 kDa cutoff-limit, Spectrum Laboratories, Rancho Domingo, Calif.). Undissolved particulates were removed from the solution by filtration through a […] filter before each experiment (Steriflip, Millipore Inc. Billerica, Mass.). At least one hr was allowed for equilibration before the start of urine collections, at which point plasma inulin concentration had stabilized at an average value of 30±3 μg/ml.
as §2, §3
This assay was based on the method described by Lorenz and Gruenstein. Urine samples were diluted with hepes-buffered saline (3, 5, 10, or 20 fold, based on urine flow) to neutralize the pH and bring the intensity of FITC emissions into detector range. Small volumes (3-5 μl) of diluted urine and undiluted plasma samples were drawn into constant bore capillary tubes (10 μl Microcap tubes, Drummond Scientific Company, Broomall Pa.) and sealed at each end with water-saturated mineral oil. FITC emission intensity was measured by imaging each sample at 10× magnification with an epifluorescence microscope (Axiovert S100TV, Carl Zeiss Inc. Thornwood, N.Y.) fitted with a CCD camera (Orca II, Hamamatsu Inc. Bridgewater, N.J.) controlled by Metamorph imaging software (Molecular Devices, Sunnyvale, Calif.). Fluorescence intensities were measured as mean pixel intensity obtained from a consistent central region of each sample during a 25 or 500 msec exposure for urine and plasma, respectively. Background intensities were measured in the same way using bladder urine and tail vein plasma collected from the same rat before the beginning of inulin infusion. Inulin concentrations in plasma and urine samples were calculated from a standard curve prepared from the infusion solution used in each experiment. […]

In the case of `CC(C)C[C@H](NC(=O)[C@@H]1CSSC[C@@H]2NC(=O)[C@H](CC(C)C)NC(=O)[C@H](CCC(=O)O)NC(=O)[C@@H](NC(=O)[C@H](CC(=O)O)NC(=O)[C@H](CC(=O)O)NC(=O)[C@@H](N)CC(N)=O)CSSC[C@H](NC(=O)[C@H](C)NC(=O)[C@H](C(C)C)NC(=O)[C@H](CC(N)=O)NC(=O)[C@H](C(C)C)NC2=O)C(=O)N[C@@H]([C@@H](C)O)C(=O)NCC(=O)N1)C(=O)O` (single isomer, unassigned) [huUgnB, Asn Asp Asp Cys Glu Leu Cys Val Asn Val Ala Cys Thr Gly Cys Leu], the “BP (mean arterial blood pressure)” value (anesthetized rats [1]; huUgnB 9 nmol, Infusion) is reported as 108 ± 6 mmHg, the “BP (mean arterial blood pressure)” value (anesthetized rats [1]; huUgnB 9 nmol, Post-infuse) is reported as 107 ± 5 mmHg and the “BP (mean arterial blood pressure)” value (anesthetized rats [1]; huUgnB 9 nmol, Pre-infuse) is reported as 115 ± 5 mmHg. For the same compound, the “BP (mean arterial blood pressure)” value (anesthetized rats [1]; huUgnB 18 nmol, Infusion) was 117 ± 3 mmHg, the “BP (mean arterial blood pressure)” value (anesthetized rats [1]; huUgnB 18 nmol, Post-infuse) was 113 ± 3 mmHg and the “BP (mean arterial blood pressure)” value (anesthetized rats [1]; huUgnB 18 nmol, Pre-infuse) was 124 ± 2 mmHg. The “BP (mean arterial blood pressure)” value (anesthetized rats [1]; huUgnB 35 nmol, Infusion) was 108 ± 4 mmHg, the “BP (mean arterial blood pressure)” value (anesthetized rats [1]; huUgnB 35 nmol, Post-infuse) was 107 ± 3 mmHg and the “BP (mean arterial blood pressure)” value (anesthetized rats [1]; huUgnB 35 nmol, Pre-infuse) was 118 ± 3 mmHg. For the same compound, the “BP (mean arterial blood pressure)” value (anesthetized rats [1]; huUgnB 70 nmol, Infusion) was 107 ± 5 mmHg, the “BP (mean arterial blood pressure)” value (anesthetized rats [1]; huUgnB 70 nmol, Post-infuse) was 107 ± 4 mmHg and the “BP (mean arterial blood pressure)” value (anesthetized rats [1]; huUgnB 70 nmol, Pre-infuse) was 119 ± 3 mmHg. The “BP (mean arterial blood pressure)” value (anesthetized rats [1]; huUgnB 140 nmol, Infusion) was 119 ± 5 mmHg, the “BP (mean arterial blood pressure)” value (anesthetized rats [1]; huUgnB 140 nmol, Post-infuse) was 117 ± 5 mmHg and the “BP (mean arterial blood pressure)” value (anesthetized rats [1]; huUgnB 140 nmol, Pre-infuse) was 123 ± 5 mmHg. For the same compound, the “V (urine flow rate)” value (anesthetized rats [2]; huUgnB 9 nmol, Infusion) was 2.22 ± 0.19 μl/min/g KW, the “V (urine flow rate)” value (anesthetized rats [2]; huUgnB 9 nmol, Post-infuse) was 2.55 ± 0.18 μl/min/g KW and the “V (urine flow rate)” value (anesthetized rats [2]; huUgnB 9 nmol, Pre-infuse) was 1.84 ± 0.28 μl/min/g KW. For the same compound, the “V (urine flow rate)” value (anesthetized rats [2]; huUgnB 18 nmol, Infusion) was 2.40 ± 0.15 μl/min/g KW, the “V (urine flow rate)” value (anesthetized rats [2]; huUgnB 18 nmol, Post-infuse) was 3.11 ± 0.32 μl/min/g KW and the “V (urine flow rate)” value (anesthetized rats [2]; huUgnB 18 nmol, Pre-infuse) was 1.79 ± 0.14 μl/min/g KW. The “V (urine flow rate)” value (anesthetized rats [2]; huUgnB 35 nmol, Infusion) was 2.53 ± 0.16 μl/min/g KW, the “V (urine flow rate)” value (anesthetized rats [2]; huUgnB 35 nmol, Post-infuse, *** p<0.005 vs time control) was 3.84 ± 0.27*** μl/min/g KW and the “V (urine flow rate)” value (anesthetized rats [2]; huUgnB 35 nmol, Pre-infuse) was 2.38 ± 0.25 μl/min/g KW. The “V (urine flow rate)” value (anesthetized rats [2]; huUgnB 70 nmol, Infusion) was 3.11 ± 0.71 μl/min/g KW, the “V (urine flow rate)” value (anesthetized rats [2]; huUgnB 70 nmol, Post-infuse, * p<0.05 vs time control) was 3.92 ± 0.5* μl/min/g KW and the “V (urine flow rate)” value (anesthetized rats [2]; huUgnB 70 nmol, Pre-infuse) was 2.04 ± 0.20 μl/min/g KW. The “V (urine flow rate)” value (anesthetized rats [2]; huUgnB 140 nmol, Infusion) was 2.71 ± 0.40 μl/min/g KW, the “V (urine flow rate)” value (anesthetized rats [2]; huUgnB 140 nmol, Post-infuse, ** p<0.01 vs time control) was 4.50 ± 0.80** μl/min/g KW and the “V (urine flow rate)” value (anesthetized rats [2]; huUgnB 140 nmol, Pre-infuse) was 2.24 ± 0.14 μl/min/g KW. The “GFR (glomerular filtration rate)” value (anesthetized rats [3]; huUgnB 9 nmol, Infusion) was 918 ± 66 μl/min/g KW, the “GFR (glomerular filtration rate)” value (anesthetized rats [3]; huUgnB 9 nmol, Post-infuse) was 947 ± 60 μl/min/g KW and the “GFR (glomerular filtration rate)” value (anesthetized rats [3]; huUgnB 9 nmol, Pre-infuse) was 921 ± 57 μl/min/g KW. The “GFR (glomerular filtration rate)” value (anesthetized rats [3]; huUgnB 18 nmol, Infusion) was 936 ± 76 μl/min/g KW, the “GFR (glomerular filtration rate)” value (anesthetized rats [3]; huUgnB 18 nmol, Post-infuse) was 877 ± 80 μl/min/g KW and the “GFR (glomerular filtration rate)” value (anesthetized rats [3]; huUgnB 18 nmol, Pre-infuse) was 890 ± 55 μl/min/g KW. The “GFR (glomerular filtration rate)” value (anesthetized rats [3]; huUgnB 35 nmol, Infusion) was 830 ± 48 μl/min/g KW, the “GFR (glomerular filtration rate)” value (anesthetized rats [3]; huUgnB 35 nmol, Post-infuse) was 870 ± 53 μl/min/g KW and the “GFR (glomerular filtration rate)” value (anesthetized rats [3]; huUgnB 35 nmol, Pre-infuse) was 866 ± 64 μl/min/g KW. For the same compound, the “GFR (glomerular filtration rate)” value (anesthetized rats [3]; huUgnB 70 nmol, Infusion) was 867 ± 86 μl/min/g KW, the “GFR (glomerular filtration rate)” value (anesthetized rats [3]; huUgnB 70 nmol, Post-infuse) was 876 ± 26 μl/min/g KW and the “GFR (glomerular filtration rate)” value (anesthetized rats [3]; huUgnB 70 nmol, Pre-infuse) was 883 ± 95 μl/min/g KW. For the same compound, the “GFR (glomerular filtration rate)” value (anesthetized rats [3]; huUgnB 140 nmol, Infusion) was 788 ± 67 μl/min/g KW, the “GFR (glomerular filtration rate)” value (anesthetized rats [3]; huUgnB 140 nmol, Post-infuse) was 924 ± 46 μl/min/g KW and the “GFR (glomerular filtration rate)” value (anesthetized rats [3]; huUgnB 140 nmol, Pre-infuse) was 858 ± 86 μl/min/g KW.

Source: patent US20120028897A1, “METHODS AND COMPOSITIONS FOR THE TREATMENT OF FLUID RETENTION DISORDERS” (priority 2008, published 2012)
